# Results published in publication PMC7221699, “Synthesis and Cytotoxic Analysis of Novel Myrtenyl Grafted Pseudo-Peptides Revealed Potential Candidates for Anticancer Therapy” (Molecules, 2020).
# Assays:
# [1] = tested on: human gastric adenocarcinoma (AGS) cells; assay: Sulforhodamine B (SRB) cell cytotoxicity assay, AGS cells; type: cell-based; settings: for viability at 0.24 µg/mL / EC50: Homo sapiens; for viability at 0.24 µg/mL: AGS, 240 ng/mL, Figure 2, read-out: viability (%) in the AGS screen; for viability at 0.24 µg/mL / cytotoxicity against AGS cells at the lowest concentration: 24 h; for cytotoxicity to AGS cells (preliminary screen): 60, 120 and 240 ng/mL, 24 h of incubation; for cytotoxicity against AGS cells at the lowest concentration: 60 ng/mL; for Emax / EC50: AGS cells; for Emax: maximal drug effect on viability rate, 1 = no effect, 0 = fully cytotoxic; for EC50: 24 h of drug treatment, SRB assay
# Description: (§1) […] The cell lines were expanded, cultured, and maintained at 37 °C in a humid atmosphere with 5% CO2 in modified Dulbecco’s medium (Thermo Fisher Scientific, Waltham, MA, USA), with 10% FBS (Thermo Fisher Scientific, Waltham, MA, USA) and 100 U/mL of the antibiotic mixture penicillin/streptomycin (Thermo Fisher Scientific, Waltham, MA, USA).
# (§2) We evaluated the cytotoxicity effects of novel Myrtenal hybrids against on cells by the sulforhodamine B (SRB) assay. Initially, the cells were seeded in 96-well microplates at a density of 2 × 10^4 cells/well. All compounds were initially dissolved in 100% of methanol and prediluted to reduce methanol concentration to 1% or lower in culture medium and added to the cells at different concentrations for 24 h. Then, cells were fixed by adding 10% (w/v) trichloroacetic acid (TCA) (Winkler) in each well and were stained with 0.057% (w/v) Sulforhodamine B (SRB) (Sigma-Aldrich) in 1% (v/v) acetic acid (Winkler). The bound dye was dissolved in 10 mM Tris base (Sigma-Aldrich), and the absorbance was determined at 510 nm using a multiplate reader (Synergy 2, Biotek Instruments). Percentage cell viability was determined using the formula: […]. The absorbance from the wells of the negative control (1% methanol in culture medium) was considered as the 100% viability. EC50 values were determined by regression analysis (R^2 > 0.95) of the corresponding dose response curves of percentage of cell viability and concentration of the compounds. Emax, the maximum effect of the drug at the highest tested concentration were determined using an online calculator (http://www.grcalculator.org/). Emax lies between 1 and 0; a value of 0 corresponds to a fully cytotoxic response.
# [2] = tested on: human dermal fibroblast (HDF) cells; assay: Sulforhodamine B (SRB) cell cytotoxicity assay, HDF non-cancer cells; type: cell-based; settings: 60, 120 and 240 ng/mL, 24 h
# Description: as §1, §2
# [3] = tested on: human breast adenocarcinoma (MCF-7) cells; assay: Sulforhodamine B (SRB) cell cytotoxicity assay, MCF-7 cells; type: cell-based; settings: for EC50: Homo sapiens, MCF7, 24 h of drug treatment, SRB assay; for Emax: maximal drug effect on viability rate, 1 = no effect, 0 = fully cytotoxic
# Description: as §1, §2
# [4] = tested on: human colon adenocarcinoma (HT-29) cells; assay: Sulforhodamine B (SRB) cell cytotoxicity assay, HT-29 cells; type: cell-based; settings: HT29 cells; for Emax: maximal drug effect on viability rate, 1 = no effect, 0 = fully cytotoxic; for EC50: Homo sapiens, HT-29, 24 h of drug treatment, SRB assay
# Description: as §1, §2
# primary CD4+ T cells = assay: Viability and cell count of activated CD4+ T lymphocytes per proliferation cycle (flow cytometry); type: cell-based, human; settings: compounds added at EC25 48 h after activation, incubated four days; for viability of non-proliferating CD4+ T cells: cycle 0 and 1; for viability / number of proliferating CD4+ T cells: cycle 2, 3 and 4
# Description: CD4+ T cells were first stained with a cell tracer dye, a fluorescent reagent that diffuses into cells and binds covalently to intracellular amines, and then with a Live/Dead dye that permeates into cells with damaged membranes, while live cells remain unstained. In addition, counting beads were added into each sample to calculate the exact number of cells per cell cycle (Figure 4A). Then, in order to induce proliferation, fluorescent-labelled CD4+ T cells were activated with anti-CD3/CD28 beads, which mimic physiological T cell receptor triggering and co-stimulation in T lymphocytes. After activation, a proportion of cells proliferated, while some stayed in a non-proliferative state. […] Myrtenyl derivatives were added after the second day of culture to evaluate their effect on non-proliferating CD4+ T cells at cycle 0 and 1 and in proliferating cells in cycle 2, 3, and 4. Live CD4+ T cells activated in the presence of five Myrtenyl derivatives were counted and results were normalized with the control sample per cell cycle.
# CD4+ T cells were obtained from peripheral blood from healthy volunteers. Blood samples were diluted 1:2 with PBS before adding 50 μL/mL of RosettSep Human CD4+ T cell enrichment cocktail (STEM CELL) for 20 min at room temperature. After incubation, samples were diluted again 1:4 with PBS and CD4+ T cells were obtained directly from the mononuclear fraction obtained after Ficoll–Hypaque density gradient centrifugation. CD4+ T cells were washed twice, counted, and resuspended in PBS. CD4+ T cells were then stained with 1 μM Cell Trace Violet Cell Proliferation Kit (Invitrogen, Thermo Fisher Scientific, Waltham, MA, USA) for 20 min at 37 °C, protected from light. Unbound dye was quenched by adding cold FCS for 5 min at 4 °C. CD4+ T cells were washed two times and resuspended in X–VIVO (Gibco) with IL–2 (50 U/mL, ProLeukin). Cells (2 × 10^5) were activated for 48 h with CD3/CD28 Dynabeads (Invitrogen) prior to adding the compounds. After 48 h, compounds were added (EC25) and incubated for four days. To analyze proliferation and viability, cells were stained with Live/Dead fixable far red dead cell staining kit (Invitrogen) for 30 min at 4 °C and counting beads were added before acquisition. Cells were acquired on an LSRFortessa X20 (BD) within 24 h. Data were analyzed using FlowJo (Tree Star, Inc., Ashland, OR, USA).
# [5] = tested on: AGS, MCF-7 and HT-29 cells; assay: SRB cytotoxicity assay, summary over the three cancer cell lines; type: cell-based; settings: Homo sapiens, MCF-7 and HT-29, 24 h, read-out: EC50 range over the cancer cell lines
# Description: as §1
# as §2, with “All compounds were initially dissolved in 100% of methanol and prediluted to reduce methanol concentration to 1% or lower in culture medium and added to the cells at different concentrations for 24 h. Then, cells were fixed by adding 10% (w/v) trichloroacetic acid (TCA) (Winkler) in each well and were stained with 0.057% (w/v) Sulforhodamine B (SRB) (Sigma-Aldrich) in 1% (v/v) acetic acid (Winkler).” left out, “Emax lies between 1 and 0; a value of 0 corresponds to a fully cytotoxic response.” left out
Structure (SMILES),viability at 0.24 µg/mL [1],cytotoxicity to AGS cells (preliminary screen) [1],cytotoxicity against AGS cells at the lowest concentration [1],Emax [1],EC50 [1],effect on HDF viability (preliminary screen) [2],EC50 [3],Emax [3],Emax [4],EC50 [4],viability of non-proliferating CD4+ T cells at cycle 0 (primary CD4+ T cells),viability of non-proliferating CD4+ T cells (primary CD4+ T cells),viability / number of proliferating CD4+ T cells (primary CD4+ T cells),viability of proliferating CD4+ T cells at cycle 4 (primary CD4+ T cells; cycle 4),EC50 [5]
"C#CCN(C(C)=O)C(C(=O)NC1CCCCC1)C1=CC[C@H]2C[C@@H]1C2(C)C (mixture of isomers) [1c, N-cyclohexyl-2-((1R,5S)-6,6-dimethylbicyclo[3.1.1]hept-2-en-2-yl)-2-(N-(prop-2-yn-1-yl)acetamido) acetamide]",40%,,,,,,,,,,,,,,
"CC(=O)N(CC#CC#CCN(C(C)=O)C(C(=O)NC1CCCCC1)C1=CC[C@H]2C[C@@H]1C2(C)C)C(C(=O)NC1CCCCC1)C1=CC[C@H]2C[C@@H]1C2(C)C (mixture of isomers) [4b, 2,2′-[hexa-2,4-diyne-1,6-diylbis(acetylazanediyl)]-bis[N-cyclohexyl-2-((1R,5S)-6,6-dimethylbicyclo[3.1.1]hept-2-en-2-yl)acetamide]]",,not cytotoxic,,,,,,,,,,,,,
"CC(=O)N(Cc1ccccc1)C(C(=O)NC1CCCCC1)C1=CC[C@H]2C[C@@H]1C2(C)C (stereo partly drawn) [1a, 2-(N-benzylacetamido)-N-cyclohexyl-2-((1R,5S)-6,6-dimethylbicyclo[3.1.1]hept-2-en-2-yl)acetamide]",,,high cytotoxicity,0.1,46 nM,without affecting HDF viability,65 nM,0.1,0.1,68 nM,more cytotoxic than 3c,reduced viability,reduced viability,,
"C#CCN(CC(=O)NC1CCCCC1)C(=O)C1=CC[C@H]2C[C@@H]1C2(C)C [2c, (1R,5S)-N-[2-(cyclohexylamino)-2-oxoethyl]-6,6-dimethyl-N-(prop-2-yn-1-yl)bicyclo[3.1.1]hept-2-ene-2-carboxamide]",60%,,,,,,,,,,,,,,
"Cc1ccc(-n2cc(CN(CC(=O)NC3CCCCC3)C(=O)C3=CC[C@H]4C[C@@H]3C4(C)C)nn2)cc1 [3a, (1R,5S)-N-[2-(cyclohexylamino)-2-oxoethyl]-6,6-dimethyl-N-{[1-(p-tolyl)-1H-1,2,3-triazol-4-yl]methyl} bicyclo[3.1.1]hept-2-ene-2-carboxamide]",,,high cytotoxicity,0.1,50 nM,without affecting HDF viability,24 nM,0.3,0.3,59 nM,more cytotoxic than 3c,reduced viability,reduced viability,,
"CC1(C)[C@H]2CC=C(C(=O)N(CC(=O)NC3CCCCC3)Cc3cn(-c4cccc(Cl)c4)nn3)[C@@H]1C2 [3b, (1R,5S)-N-{[1-(3-chlorophenyl)-1H-1,2,3-triazol-4-yl]methyl}-N-[2-(cyclohexylamino)-2-oxoethyl]-6,6-dimethylbicyclo[3.1.1]hept-2-ene-2-carboxamide]",,,high cytotoxicity,0.2,49 ± 8 nM,without affecting HDF viability,24 ± 7 nM,0.5,0.4,21 ± 7 nM,,did not reduce viability,able to reduce number of proliferating cells,,
"COc1ccc(-n2cc(CN(CC(=O)NC3CCCCC3)C(=O)C3=CC[C@H]4C[C@@H]3C4(C)C)nn2)cc1 [3c, (1R,5S)-N-[2-(cyclohexylamino)-2-oxoethyl]-N-{[1-(4-methoxyphenyl)-1H-1,2,3-triazol-4-yl]methyl}-6,6-dimethylbicyclo[3.1.1]hept-2-ene-2-carboxamide]",,,high cytotoxicity,0.1,75 nM,without affecting HDF viability,38 nM,0.4,0.4,38 nM,,reduced viability,reduced viability,,
"CC1(C)[C@H]2CC=C(Cn3cc(CN(CC(=O)NC4CCCCC4)C(=O)C4=CC[C@H]5C[C@@H]4C5(C)C)nn3)[C@@H]1C2 [3d, (1R,5S)-N-[2-(cyclohexylamino)-2-oxoethyl]-N-({1-[((1R,5S)-6,6-dimethylbicyclo[3.1.1]hept-2-en-2-yl)methyl]-1H-1,2,3-triazol-4-yl}methyl)-6,6-dimethylbicyclo[3.1.1]hept-2-ene-2-carboxamide]",,,high cytotoxicity,0.1,33 nM,without affecting HDF viability,22 nM,0.1,0.1,33 nM,did not reduced viability,,,lowest capacity to reduce viability,22 to 33 nM
"CC(=O)OC[C@@H]1O[C@H](n2cc(CN(CC(=O)NC3CCCCC3)C(=O)C3=CC[C@H]4C[C@@H]3C4(C)C)nn2)[C@@H](OC(C)=O)[C@H](OC(C)=O)[C@H]1OC(C)=O [3e, (2S,3S,4R,5S,6S)-2-(acetoxymethyl)-6-[4-({(1R,5S)-N-[2-(cyclohexylamino)-2-oxoethyl]-6,6-dimethylbicyclo [3.1.1]hept-2-ene-2-carboxamido}methyl)-1H-1,2,3-triazol-1-yl]tetrahydro-2H-pyran-3,4,5-triyl triacetate]",,,low activity,,,,,,,,,,,,
"CC1(C)[C@H]2CC=C(C(=O)N(CC#CC#CCN(CC(=O)NC3CCCCC3)C(=O)C3=CC[C@H]4C[C@@H]3C4(C)C)CC(=O)NC3CCCCC3)[C@@H]1C2 [4a, (1R,1′R,5S,5′S)-N,N′-(hexa-2,4-diyne-1,6-diyl)-bis{N-[2-(cyclohexylamino)-2-oxoethyl]-6,6-dimethylbicyclo [3.1.1]hept-2-ene-2-carboxamide}]",,not cytotoxic,,,,,,,,,,,,,
